Reference: US20120220577A1, “GLYCINE B ANTAGONISTS” (Merz Pharma GmbH & Co KgaA, priority 2009, published 2012)
Where a name gives a salt, the structure may show the parent alone.

Assays:
[1] = biological target: T1, glycine binding pocket of the NMDA receptor (Rattus norvegicus, UniProt P35439); test: [3H]MDL-105,519 displacement studies (rat cortical membranes); settings: displacement of 2 nM [3H]-MDL-105,519, rat cortical membranes; read-out: NMDA-MDL 105519-r-CTX - IC50
T1 construct: For isolation of the cell membranes, the cortices are homogenized; from tissue; host or cells: rat cerebral cortex membranes (male Sprague-Dawley)
Method: Anaesthetised male Sprague-Dawley rats (200-250 g, Janvier, Le Genest-Isle, France) are decapitated and their brains removed rapidly. […] For isolation of the cell membranes, the cortices are homogenized in 20 volumes of ice-cold 0.32 M sucrose (Sigma-Aldrich, Taufkirchen, Germany) using a glass-Teflon homogenizer. The homogenate is centrifuged at 1000×g for 10 minutes, the pellet is discarded and the supernatant centrifuged at 20,000×g for 20 minutes. The resulting pellet is re-suspended in 20 volumes of distilled water and centrifuged for 20 minutes at 8000×g. The supernatant and the buffy coat are then centrifuged three times (48,000×g for 20 minutes) in the presence of 50 mM Tris-HCl, pH 8.0 (assay buffer). All centrifugation steps are carried out at 4° C. After resuspension in 5 volumes of 50 mM Tris-HCl, pH 7.5, the membrane suspension is frozen rapidly at −80° C. On the day of assay, the membranes are thawed and washed four times by resuspension in 50 mM Tris-HCl, pH 7.5, and centrifugation at 48,000×g for 20 minutes. The final pellet is suspended in assay buffer. […] The final protein concentration used for our studies is 400 μg/ml.
A robotic system designed for binding assays (Tecan Deutschland GmbH, Crailsheim, Germany) is loaded with the membrane solution, solutions for bound control (buffer/DMSO 20%), unlabeled glycine (1 mM) for evaluation of non-specific binding, all compounds to be tested (at 20-fold concentrations), radioligand and respective 96-well plates.
The protein/receptor concentration is held constant whereas the amount of specific bound radioligand is determined using increasing concentrations of ligand.
Firstly, the assay plates are loaded with membrane solution and are shaken at 4° C. The mother plates are then prepared by pipetting the compounds into assay buffer/20% DMSO to obtain the desired final concentrations (dose response curve with five different concentrations, e.g. 10, 3, 1, 0.3, and 0.1 μM). After transferring radioligand into the assay plates, the compounds are added (including the bound and the non-specific binding control). The final DMSO concentration is 1%. The assay plates are incubated and shaken at 4° C. for 1 h, before the mixture is exhausted as rapidly as possible via a vacuum manifold using the Multiscreen HTS glass fibre (type B) filter plates (Millipore, Schwalbach, Germany) under a constant vacuum of 450 mbar. The membranes are washed four times with cold assay buffer ([…]). 50 μL of Ultima Gold scintillation cocktail (PerkinElmer, Rodgau-Jügesheim, Germany) is added to the wet filter plates and incubated at room temperature overnight before counting the disintegration per minutes using a liquid scintillation counter (MicroBeta, PerkinElmer, Rodgau-Jügesheim, Germany).
The residual radioactivity after displacement of the test compound (n=5) is then corrected with respect to the set controls.

[2] = biological target: NMDA receptor glycine B site (Rattus norvegicus, UniProt P35439); test: Calcium FLIPR studies, rat cortical neurons (NMDA/D-Serine induced intracellular calcium); format: cell-based; set-up: Primary neurons are prepared from cortices of embryonal rats at day 17 of pregnancy; endogenous in cells; host or cells: primary rat cortical neurons (E17, 11-13 DIV); settings: rat cortical neurons; stimulation with 30 μM NMDA and 1 μM D-Serine; antagonist pre-incubated 10 min; read-out: NMDA-FLIPR-rCTX-NAM - IC50
Method: Antagonistic potencies of the test compounds are functionally evaluated using electrophysiological whole cell patch-clamp recordings and/or fluorometric intracellular Ca^2+-imaging (FLIPR) screens.
Sprague-Dawley rat embryos (E 17) are decapitated and neocortices are dissected, trypsinized and carefully triturated. The cell suspension is plated on poly-D-lysine pre-coated 96-well Plates (Greiner, Frickenhausen, Germany) at a cell density of 55.000 cells/well. The neurons are cultivated in Neurobasal media containing B27-Supplement and […] L-Glutamine (Biochrom) at 37° C. in a humidified atmosphere of 5% CO2/95% air. Medium is exchanged completely at day 4 and to 50% on day 7. At the time of experiments neurons are 11-13 days in vitro.
The increase of intracellular calcium after stimulation with 30 μM NMDA and 1 μM D-Serine is measured using the fluorometric imaging plate reader (FLIPR) and the Calcium-4-Kit (both Molecular Devices, Ismaning, Germany). Prior to addition of agonist or antagonist (5 different concentrations, n=5) the medium is aspirated and cells are washed once before loading with 150 μL of loading buffer (1 h at room temperature), consisting of Ca-4 sensitive dye reconstituted in extracellular bath solution, pH 7.3. Subsequently, plates are transferred to FLIPR to detect increases in intracellular calcium after the addition of agonist, measured as relative fluorescence units (RFU). Antagonists are pre-incubated with the cells for 10 min at room temperature before the addition of the agonist and co-agonist.
The fluorescence signal increase after addition of agonist reflects the increase of intracellular calcium. Inconsistencies in the amount of cells per well are normalised by using the spatial uniformity correction of the FLIPR software (Screenworks, Molecular Devices). The mean of replicated temporal data (n=5) is calculated and used for graphical representation. For the evaluation of the antagonistic potency, the calcium changes in response to different concentrations of antagonist are determined using an area under the curve (AUC) calculation. All responses (RFU-values) are determined as percentage of control (=maximum response at 30 μM NMDA and 1 μM D-Serine). IC50 values are calculated according the four parameter logistic equation using GraFit (Erithacus Software).

SMILES	melting point	IC50 [1] [nM]	IC50 [2] [nM]
NC(=O)c1[nH]cnc1NC(=O)COc1cc(C(=O)O)cc2cc(Cl)cc(Cl)c12 [Example 136, 4-[(5-Carbamoyl-1H-imidazol-4-ylcarbamoyl)-methoxy]-5,7-dichloro-naphthalene-2-carboxylic acid]	> 250 °C		
O=C(COc1cc(C(=O)O)cc2cc(Cl)cc(Cl)c12)NCc1cccc(Cc2nnn[nH]2)c1 [Example 119, 5,7-Dichloro-4-{[3-(1H-tetrazol-5-ylmethyl)-benzylcarbamoyl]-methoxy}-naphthalene-2-carboxylic acid]	243 to 244 °C		
NCc1cc(OCC(=O)O)ccc1NC(=O)COc1cc(C(=O)O)cc2cc(Cl)cc(Cl)c12 (as salt: trifluoroacetate) [Example 97, 4-[(2-Aminomethyl-4-carboxymethoxy-phenylcarbamoyl)-methoxy]-5,7-dichloro-naphthalene-2-carboxylic acid]	> 169 °C		
O=C(COc1cc(C(=O)O)cc2cc(Cl)cc(Cl)c12)NCc1ccc(OCc2nnn[nH]2)cc1 [Example 126, 5,7-Dichloro-4-{[4-(1H-tetrazol-5-ylmethoxy)-benzylcarbamoyl]-methoxy}-naphthalene-2-carboxylic acid]	> 236 °C (dec.)		
O=C(COc1ccccc1NC(=O)COc1cc(C(=O)O)cc2cc(Cl)cc(Cl)c12)NCCO [Example 134, 5,7-Dichloro-4-({2-[(2-hydroxy-ethylcarbamoyl)-methoxy]-phenylcarbamoyl}-methoxy)-naphthalene-2-carboxylic acid]	217 to 218 °C		
Cc1cnc(NC(=O)COc2cc(C(=O)O)cc3cc(Cl)cc(Cl)c23)s1 [Example 133, 5,7-Dichloro-4-[(5-methyl-thiazol-2-ylcarbamoyl)-methoxy]-naphthalene-2-carboxylic acid]	> 250 °C		
CN1CCc2sc(NC(=O)COc3cc(C(=O)O)cc4cc(Cl)cc(Cl)c34)nc2C1 [Example 132, 5,7-Dichloro-4-[(5-methyl-4,5,6,7-tetrahydro-thiazolo[4,5-c]pyridin-2-ylcarbamoyl)-methoxy]-naphthalene-2-carboxylic acid]	242 to 243 °C		
N#CCc1ccccc1NC(=O)COc1cc(C(=O)O)cc2cc(Cl)cc(Cl)c12 [Example 137, 5,7-Dichloro-4-[(2-cyanomethyl-phenylcarbamoyl)-methoxy]-naphthalene-2-carboxylic acid]	246 to 247 °C		
CNC(=O)COc1cc(CN)ccc1NC(=O)COc1cc(C(=O)O)cc2cc(Cl)cc(Cl)c12 (as salt: hydrochloride) [Example 116, 4-[(4-Aminomethyl-2-methylcarbamoylmethoxy-phenylcarbamoyl)-methoxy]-5,7-dichloro-naphthalene-2-carboxylic acid]	233 to 235 °C		
Cc1nc(NC(=O)COc2cc(C(=O)O)cc3cc(Cl)cc(Cl)c23)sc1C [Example 135, 5,7-Dichloro-4-[(4,5-dimethyl-thiazol-2-ylcarbamoyl)-methoxy]-naphthalene-2-carboxylic acid]	> 250 °C		
COCC(Oc1cc(C(=O)O)cc2cc(Cl)cc(Cl)c12)C(=O)Nc1ccccc1OCC(=O)O (stereo not shown) [Example 131, 4-[1-(2-Carboxymethoxy-phenylcarbamoyl)-2-methoxy-ethoxy]-5,7-dichloro-naphthalene-2-carboxylic acid]	224 to 225 °C		
O=C(COc1cc(C(=O)O)cc2cc(Cl)cc(Cl)c12)Nc1cccc(Cc2nnn[nH]2)c1 [Example 90, 5,7-Dichloro-4-{[3-(1H-tetrazol-5-ylmethyl)-phenylcarbamoyl]-methoxy}naphthalene-2-carboxylic acid]		550	2680
O=C(COc1cc(C(=O)O)cc2cc(Cl)cc(Cl)c12)NCc1cccnc1 [Example 104, 5,7-Dichloro-4-{[(pyridin-3-ylmethyl)-carbamoyl]-methoxy}-naphthalene-2-carboxylic acid]		186	1390
O=C(COc1cc(C(=O)O)cc2cc(Cl)cc(Cl)c12)Nc1nnn[nH]1 [Example 64, 5,7-Dichloro-4-[(1H-tetrazol-5-ylcarbamoyl)-methoxy]-naphthalene-2-carboxylic acid]		1260	9280
O=C(COc1cc(C(=O)O)cc2cc(Cl)cc(Cl)c12)Nc1cccc(-c2nnn[nH]2)c1 [Example 101, 5,7-Dichloro-4-{[3-(1H-tetrazol-5-yl)-phenylcarbamoyl]-methoxy}-naphthalene-2-carboxylic acid]		344	2270
O=C(O)c1cc(OCC(=O)N2CCc3ccccc3C2)c2c(Cl)cc(Cl)cc2c1 [Example 52, 5,7-Dichloro-4-[2-(3,4-dihydro-1H-isoquinolin-2-yl)-2-oxo-ethoxy]-naphthalene-2-carboxylic acid]		2290	7350
COCC(Oc1cc(C(=O)O)cc2cc(Cl)cc(Cl)c12)C(=O)Nc1ccccc1 (stereo not shown) [Example 67, 5,7-Dichloro-4-(2-methoxy-1-phenylcarbamoyl-ethoxy)-naphthalene-2-carboxylic acid]		1370	6490
COc1ccccc1N1CCC(Oc2cc(C(=O)O)cc3cc(Cl)cc(Cl)c23)C1=O (stereo not shown) [Example 75, 5,7-Dichloro-4-[1-(2-methoxy-phenyl)-2-oxo-pyrrolidin-3-yloxy]-naphthalene-2-carboxylic acid]		1270	4960
O=C(O)c1cc(OCC(=O)N2Cc3ccccc3CC2C(=O)O)c2c(Cl)cc(Cl)cc2c1 (stereo not shown) [Example 38, 2-[2-(3-Carboxy-6,8-dichloronaphthalen-1-yloxy)-acetyl]-1,2,3,4-tetrahydroisoquinoline-3-carboxylic acid]		1350	10600
O=C(COc1cc(C(=O)O)cc2cc(Cl)cc(Cl)c12)NCc1cccc(-c2nnn[nH]2)c1 [Example 107, 5,7-Dichloro-4-{[3-(1H-tetrazol-5-yl)-benzylcarbamoyl]-methoxy}-naphthalene-2-carboxylic acid]		139	1440
Cc1ccc(S(=O)(=O)NC(=O)COc2cc(C(=O)O)cc3cc(Cl)cc(Cl)c23)cc1 [Example 36, 5,7-Dichloro-4-[2-oxo-2-(toluene-4-sulfonylamino)-ethoxy]-naphthalene-2-carboxylic acid]		1520	5470
